{"source": "ChEMBL document CHEMBL1138285", "about": "“Structure-activity relationships of adenosines with heterocyclic N6-substituents” (Bioorg Med Chem Lett, 2007)", "key": {"[1]": {"target": "Adenosine receptor A2a (Rattus norvegicus) (UniProt P30543)", "sequence (P30543 whole entry, looked up)": "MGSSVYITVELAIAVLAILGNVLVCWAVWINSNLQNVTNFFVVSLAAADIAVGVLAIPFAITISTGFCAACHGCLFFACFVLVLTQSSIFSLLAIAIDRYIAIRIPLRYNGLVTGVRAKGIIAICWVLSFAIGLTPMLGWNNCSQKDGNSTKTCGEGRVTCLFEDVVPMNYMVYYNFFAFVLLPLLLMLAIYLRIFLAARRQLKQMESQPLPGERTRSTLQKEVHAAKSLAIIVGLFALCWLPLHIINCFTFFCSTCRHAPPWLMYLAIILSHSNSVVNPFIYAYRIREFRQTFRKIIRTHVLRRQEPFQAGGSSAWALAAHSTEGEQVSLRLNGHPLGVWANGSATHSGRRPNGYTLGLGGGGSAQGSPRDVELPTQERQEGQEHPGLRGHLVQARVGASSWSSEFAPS", "assay": "Displacement of [3H]ZM-241385 from adenosine A2A receptor expressed in PC12 cell membrane"}, "[2]": {"system": "Adenosine receptor A1 (Mesocricetus auratus)", "assay": "Intrinsic activity at adenosine A1 receptor expressed in DDT1 MF2 cells assessed as maximal inhibition of (-)-isoproterenol-stimulated cAMP accumulation"}, "[3]": {"species": "Homo sapiens", "assay": "Selectivity for adenosine A1 receptor over adenosine A2A receptor"}}}
{"compound": "OC[C@H]1O[C@@H](n2cnc3c(N[C@@H]4CCSC4)ncnc32)[C@H](O)[C@@H]1O", "values": [{"measurement": "Ki", "setting": "[1]", "result": 9.7, "unit": "µM"}]}
{"compound": "CC(C)(C)OC(=O)N1[C@H]2CC[C@H]1[C@H](Nc1ncnc3c1ncn3[C@@H]1O[C@H](CO)[C@@H](O)[C@H]1O)C2", "values": [{"measurement": "Intrinsic activity", "setting": "[2]", "result": 1.01}, {"measurement": "Ki", "setting": "[1]", "result": 34.7, "unit": "µM"}]}
{"compound": "O=C(OCc1ccccc1)N1CC[C@@H](Nc2ncnc3c2ncn3[C@@H]2O[C@H](CO)[C@@H](O)[C@H]2O)C1", "values": [{"measurement": "Ki", "setting": "[1]", "result": "> 100", "unit": "µM"}]}
{"compound": "OC[C@H]1O[C@@H](n2cnc3c(N[C@@H]4CC[Se]C4)ncnc32)[C@H](O)[C@@H]1O", "values": [{"measurement": "Ki", "setting": "[1]", "result": 5.5, "unit": "µM"}]}
{"compound": "O=C(OCc1ccccc1Br)N1[C@H]2CC[C@H]1[C@H](Nc1ncnc3c1ncn3[C@@H]1O[C@H](CO)[C@@H](O)[C@H]1O)C2", "values": [{"measurement": "Intrinsic activity", "setting": "[2]", "result": 0.97}, {"measurement": "Ki", "setting": "[1]", "result": "> 100", "unit": "µM"}]}
{"compound": "O=C(OCc1ccccc1Cl)N1[C@H]2CC[C@H]1[C@H](Nc1ncnc3c1ncn3[C@@H]1O[C@H](CO)[C@@H](O)[C@H]1O)C2", "values": [{"measurement": "Ki", "setting": "[1]", "result": "> 100", "unit": "µM"}]}
{"compound": "O=C(OCc1ccccc1)N1[C@H]2CC[C@H]1[C@H](Nc1ncnc3c1ncn3[C@@H]1O[C@H](CO)[C@@H](O)[C@H]1O)C2", "values": [{"measurement": "Ki", "setting": "[1]", "result": "> 100", "unit": "µM"}]}
{"compound": "CC(C)(C)OC(=O)N1CC[C@@H](Nc2ncnc3c2ncn3[C@@H]2O[C@H](CO)[C@@H](O)[C@H]2O)C1", "values": [{"measurement": "Intrinsic activity", "setting": "[2]", "result": 0.99}, {"measurement": "Ki", "setting": "[1]", "result": "> 100", "unit": "µM"}, {"measurement": "Ratio Ki", "setting": "[3]", "result": "> 4700"}]}
{"compound": "CC(=O)N1CC[C@@H](Nc2ncnc3c2ncn3[C@@H]2O[C@H](CO)[C@@H](O)[C@H]2O)C1", "values": [{"measurement": "Ki", "setting": "[1]", "result": "> 100", "unit": "µM"}]}
{"compound": "OC[C@H]1O[C@@H](n2cnc3c(N[C@@H]4CCOC4)ncnc32)[C@H](O)[C@@H]1O", "note": "[TECADENOSON]", "values": [{"measurement": "Ki", "setting": "[1]", "result": "> 100", "unit": "µM"}]}
{"compound": "OC[C@H]1O[C@@H](n2cnc3c(NC4CC5CCC4N5)ncnc32)[C@H](O)[C@@H]1O", "note": "(stereo not given in full)", "values": [{"measurement": "Ki", "setting": "[1]", "result": 7.8, "unit": "µM"}]}
